Source: patent publication US20150113683A1, “METHODS FOR PLANT TRANSFORMATION USING SPECTINOMYCIN SELECTION” (Monsanto Technology LLC, priority 2007, published 2015)
Where “and” joins values, the source holds several entries; their conditions need not be identical. Equal entries are not always repeated.

Columns and labels:
soybean explants [1] = experiment: Explants on different levels of spectinomycin: GUS-expressing buds and shoots; assay type: cell-based, soybean (Glycine max); settings: for % explants with GUS+ shoots/buds / # Explants with GUS+ shoots/buds: 2 mg/L TDZ in co-culture; for # Explants with GUS+ shoots/buds: 25 explants assayed
soybean explants [2] = experiment: Transformation frequency using spectinomycin selection at different levels; assay type: cell-based, soybean (Glycine max)
dry soybean explants [3] = experiment: Transformation frequency of dry soybean explants using glyphosate or spectinomycin as selective agent; assay type: cell-based; settings: for % TF: dry soybean explants
dry soybean explants [4] = experiment: Dry soybean embryos, spectinomycin, liquid culture medium: TF with hydration conditions and liquid overlay timing; assay type: cell-based; settings: spectinomycin 150 ppm
Excerpt: In these studies, explants were initially hydrated and eventually regenerated on WPM solid media with liquid overlay or WPM liquid medium as above. […] In liquid overlay treatment both solid and liquid culture media were used; liquid medium was dispensed over the top of explants as they were lying on solid medium at a specified time during tissue culture as identified in the Table 30. This was done as a type of media refreshment and avoids the need for transferring explants from old media to new media. In the control treatments, explants were surface plated on a solid WPM medium (Table 2).

[5] = test system: dry excised soybean explants; experiment: Dry soybean embryos, spectinomycin, whole regenerated explant with pre-culturing step: TF and event quality; assay type: cell-based; settings: for % quality events: 1-2 copies of GUS and aadA by Invader assay; for # Events produced / TF % / qTF %: spectinomycin 150 ppm; for Estimated mTF %: marker-free TF, events without the marker gene
[6] = test system: 3 months stored dry soybean explants; experiment: Stored dry soybean explants, spectinomycin, pre-culture: TF; assay type: cell-based; settings: pMON107379
Excerpt: TDZ and lipoic acid were both added to the inoculum and to the co-culture media (INO). The construct, pMON107379, was a conventional 2T vector comprising oriRi and aadA gene, and co-culture was done for 5 days.

[7] = Total over all Spec levels of the experiment (1102: 25-250 mg/L; 1119: 50-250 mg/L)
[8] = first study, spectinomycin selection 25-250 mg/L

In the case of `CN[C@@H]1[C@H](O)[C@H](NC)[C@H]2O[C@@]3(O)C(=O)C[C@@H](C)O[C@H]3O[C@@H]2[C@H]1O` [Spectinomycin, spectinomycin], the “% explants with GUS+ shoots/buds” value (soybean explants [1]; spectinomycin level 25 (mg/L)) is reported as 52%, the “# Explants with GUS+ shoots/buds” value (soybean explants [1]; spectinomycin level 25 (mg/L)) is reported as 13 and the “% explants with GUS+ shoots/buds” value (soybean explants [1]; spectinomycin level 50) is reported as 72%. For the same compound, the “# Explants with GUS+ shoots/buds” value (soybean explants [1]; spectinomycin level 50) was 18, the “% explants with GUS+ shoots/buds” value (soybean explants [1]; spectinomycin level 100) was 76% and the “# Explants with GUS+ shoots/buds” value (soybean explants [1]; spectinomycin level 100) was 19. The “% explants with GUS+ shoots/buds” value (soybean explants [1]; spectinomycin level 150) was 72%, the “# Explants with GUS+ shoots/buds” value (soybean explants [1]; spectinomycin level 150) was 18 and the “% explants with GUS+ shoots/buds” value (soybean explants [1]; spectinomycin level 200) was 80%. The “# Explants with GUS+ shoots/buds” value (soybean explants [1]; spectinomycin level 200) was 20, the “% explants with GUS+ shoots/buds” value (soybean explants [1]; spectinomycin level 250) was 80% and the “# Explants with GUS+ shoots/buds” value (soybean explants [1]; spectinomycin level 250) was 20. The “explants that developed GUS-positive buds and shoots” value (soybean explants [1]; within two weeks on selective medium, about 22 DAI, TDZ-treated explants) was “Up to 80%”, the “% TF (transformation frequency)” value (soybean explants [2]; Spec level 25 mg/L) was 19% and the “Plants tested for transformation, Total” value (soybean explants [2]; Spec level 25 mg/L) was 19. The “Shoots harvested, % SF (shoot frequency)” value (soybean explants [2]; Spec level 25 mg/L) was 46%, the “Shoots harvested, Total” value (soybean explants [2]; Spec level 25 mg/L) was 46 and the “% TF (transformation frequency)” value (soybean explants [2]; Spec level 50 mg/L) was 14.7% and 22.2%. The “Plants tested for transformation, Total” value (soybean explants [2]; Spec level 50 mg/L) was 88 and 48, the “Shoots harvested, % SF (shoot frequency)” value (soybean explants [2]; Spec level 50 mg/L) was 24.8% and 46.8% and the “Shoots harvested, Total” value (soybean explants [2]; Spec level 50 mg/L) was 149 and 101. The “% TF (transformation frequency)” value (soybean explants [2]; Spec level 100 mg/L) was 15.7% and 12.6%, the “Shoots harvested, % SF (shoot frequency)” value (soybean explants [2]; Spec level 100 mg/L) was 20.5% and 20.6% and the “% TF (transformation frequency)” value (soybean explants [2]; Spec level 150 mg/L) was 26.1% and 18.3%. The “Shoots harvested, % SF (shoot frequency)” value (soybean explants [2]; Spec level 150 mg/L) was 35.1% and 20.8%, the “% TF (transformation frequency)” value (soybean explants [2]; Spec level 200 mg/L) was 14.4% and 12.5% and the “Shoots harvested, % SF (shoot frequency)” value (soybean explants [2]; Spec level 200 mg/L) was 28.2% and 15.2%. For the same compound, the “Shoots harvested, Total” value (soybean explants [2]; Spec level 200 mg/L) was 53 and 91, the “% TF (transformation frequency)” value (soybean explants [2]; Spec level 250 mg/L) was 19.5% and 16.3% and the “Shoots harvested, % SF (shoot frequency)” value (soybean explants [2]; Spec level 250 mg/L) was 27.5% and 18.0%. For the same compound, the “Shoots harvested, Total” value (soybean explants [2]; Spec level 250 mg/L) was 55 and 108, the “% TF (transformation frequency)” value (soybean explants [2]; [7]) was 18.6% and 15.5% and the “Shoots harvested, % SF (shoot frequency)” value (soybean explants [2]; [7]) was 33.3% and 19.9%. For the same compound, the “Shoots harvested, Total” value (soybean explants [2]; [7]) was 330 and 596, the average transformation frequency (soybean explants [2]; [8]) was 18.6% and the “transformation frequency, range” value (soybean explants [2]; [8]) was 12.6-26.1%. For the same compound, the “plants later shown to be transformed” value (soybean explants [2]; of the first 32 plants tested to confirm transformation, one escape) was 31, the transformation frequencies (dry soybean explants [3]; 150 ppm spectinomycin, dry excised soybean embryos, 1 hr hydration in INO, 4 days co-culture, two different studies) was 25.05% and 19.27% and the “% TF” value (dry soybean explants [3]; Spectinomycin 25 ppm in regeneration medium) was 4.66%. For the same compound, the “% TF” value (dry soybean explants [3]; Spectinomycin 50 ppm in regeneration medium) was 4.24%, the “% TF” value (dry soybean explants [3]; Spectinomycin 100 ppm in regeneration medium) was 6.34% and the “% TF” value (dry soybean explants [3]; Spectinomycin 200 ppm in regeneration medium) was 5.99%. For the same compound, the “TF % (mean of 3 repeats)” value (dry soybean explants [4]; Treatment 1-Control, hydration medium INO, incubation with Agrobacteria 0 minutes, surface plated on solid WPM) was 3.10%, the “TF % (mean of 3 repeats)” value (dry soybean explants [4]; Treatment 2, hydration medium BGM w/o cefotaxime, incubation with Agrobacteria 0 minutes) was 14.67% and the “TF % (mean of repeats)” value (dry soybean explants [4]; Treatment 2, no liquid overlay, Oasis Wedge transfer for regeneration) was 14.67%. The “TF % (mean of 3 repeats)” value (dry soybean explants [4]; Treatment 3, hydration medium BGM w/o cefotaxime, incubation with Agrobacteria 15 minutes) was 15.45%, the “TF % (mean of repeats)” value (dry soybean explants [4]; Treatment 3, liquid overlay 3 weeks post inoculation, 5 mLs on solid WPM, Oasis Wedge transfer) was 15.45% and the “TF % (mean of 3 repeats)” value (dry soybean explants [4]; Treatment 4, hydration medium BGM w/o cefotaxime, incubation with Agrobacteria 30 minutes) was 18.50%. For the same compound, the “TF % (mean of repeats)” value (dry soybean explants [4]; Treatment 4, liquid overlay 3 weeks post inoculation, 10 mLs on solid WPM, Oasis Wedge transfer) was 18.50%, the “TF % (mean of 3 repeats)” value (dry soybean explants [4]; Treatment 5, hydration medium INO, incubation with Agrobacteria 0 minutes) was 13.98% and the “TF % (mean of repeats)” value (dry soybean explants [4]; Treatment 5, liquid overlay 4 weeks post inoculation, 5 mLs on solid WPM, Oasis Wedge transfer) was 13.98%. The “TF % (mean of 3 repeats)” value (dry soybean explants [4]; Treatment 6, hydration medium INO, incubation with Agrobacteria 15 minutes) was 9.64%, the “TF % (mean of repeats)” value (dry soybean explants [4]; Treatment 6, liquid overlay 4 weeks post inoculation, 10 mLs on solid WPM, Oasis Wedge transfer) was 9.64% and the “TF % (mean of 3 repeats)” value (dry soybean explants [4]; Treatment 7, hydration medium INO, incubation with Agrobacteria 30 minutes) was 13.79%. The “TF % (mean of repeats)” value (dry soybean explants [4]; Treatment Control-1, liquid overlay NA, overlay volume None, no Oasis Wedge transfer) was 8.00%, the “% quality events” value ([5]; Dry Excised - 2T/OriRi, 14 events assayed) was 28.6% and the “# Events produced” value ([5]; Dry Excised - 2T/OriRi, 161 explants) was 15. For the same compound, the “Estimated mTF %” value ([5]; Dry Excised - 2T/OriRi) was 0.45%, the TF % ([5]; Dry Excised - 2T/OriRi) was 9.32 +/− 7.38% and the qTF % ([5]; Dry Excised - 2T/OriRi) was 2.5%. The “% quality events” value ([5]; Dry Excised - 2T/OriV, 32 events assayed) was 21.9%, the “# Events produced” value ([5]; Dry Excised - 2T/OriV, 260 explants) was 34 and the “Estimated mTF %” value ([5]; Dry Excised - 2T/OriV) was 0.62%. The TF % ([5]; Dry Excised - 2T/OriV) was 13.1 +/− 0.17%, the qTF % ([5]; Dry Excised - 2T/OriV) was 2.7 +/− 0.23% and the “% quality events” value ([5]; Pre-cultured Dry - 2T/OriRi, 64 events assayed) was 20.3%. For the same compound, the “# Events produced” value ([5]; Pre-cultured Dry - 2T/OriRi, 336 explants, pre-culture 5 days 23° C. dark in BGM) was 66, the “Estimated mTF %” value ([5]; Pre-cultured Dry - 2T/OriRi) was 0.7% and the TF % ([5]; Pre-cultured Dry - 2T/OriRi, pre-culture 5 days 23° C. dark in BGM) was 19.64 +/− 1.97%. For the same compound, the qTF % ([5]; Pre-cultured Dry - 2T/OriRi) was 3.9 +/− 1.22%, the “% quality events” value ([5]; Pre-cultured Dry - 2T/OriV, 311 events assayed) was 24.4% and the “# Events produced” value ([5]; Pre-cultured Dry - 2T/OriV, 1641 explants, pre-culture 5 days 23° C. dark in BGM) was 319. For the same compound, the “Estimated mTF %” value ([5]; Pre-cultured Dry - 2T/OriV) was 1.1%, the TF % ([5]; Pre-cultured Dry - 2T/OriV, pre-culture 5 days 23° C. dark in BGM) was 19.4 +/− 5.42% and the qTF % ([5]; Pre-cultured Dry - 2T/OriV) was 4.6 +/− 1.35%. It also gave an R0 plants ([6]; Fresh Dry Explants, no pre-culture step, 375 explants) of 24, a TF ([6]; Fresh Dry Explants, no pre-culture step) of 6.40% and an R0 plants ([6]; Fresh Dry Explants, pre-culture step 5 days 23° C. dark in BGM, 1008 explants) of 112. It also gave a TF ([6]; Fresh Dry Explants, pre-culture step 5 days 23° C. dark in BGM) of 11.11%, an R0 plants ([6]; Stored Dry Explants (3 months), no pre-culture step, 678 explants) of 71 and a TF ([6]; Stored Dry Explants (3 months), no pre-culture step) of 10.47%. For the same compound, the R0 plants ([6]; Stored Dry Explants (3 months), pre-culture step 5 days 23° C. dark in BGM, 901 explants) was 129, the TF ([6]; Stored Dry Explants (3 months), pre-culture step 5 days 23° C. dark in BGM) was 14.32% and the R0 plants ([6]; Wet Excised explants, no pre-culture step, 263 explants) was 75. It also gave a TF ([6]; Wet Excised explants, no pre-culture step) of 28.52%.
